Results: patent US10716797B2, “Steroid alkaloids and compositions and kits thereof” (priority 2013, dated 2020)
Read-outs that look alike come from different tables or passages of the source.

Tests used:
[1] = test system: Staphylococcus aureus ATCC 29213; assay: MIC by microdilution, compound alone or in combination with an aminoglycoside; assay type: cell-based; conditions: for potentiation / synergy with aminoglycoside (gentamicin) in words: S. aureus ATCC 29213; for MIC: Staphylococcus aureus, ATCC29213, 20 h; for Combination MIC vs ATCC29213 (MIC of gentamicin in combination with the compound): MIC of gentamicin alone 0.5 μg/mL; for MIC of aminoglycoside against S. aureus ATCC 29213 in combination with Compound 14: Compound 14 used at 4 μg/mL; for Potentiation fold with Compound 14: MIC aminoglycoside alone / MIC with Compound 14 at 4 μg/mL; for MIC vs ATCC29213: hydrochloride
Protocol: (§1) Method. The minimal inhibitory concentrations (MICs), (i.e. lowest concentration of an antimicrobial that will inhibit the visible growth of a microorganism after incubation), of test compounds were determined against the normal or SCV strains of bacterial species from the Firmicutes phylum. Briefly, MICs were determined using the microdilution method in 96-well plates (Clinical and Laboratory Standards Institute (CLSI), 2011). Bacteria were inoculated at ˜10^5-10^6 CFU/mL and incubated at 35° C. for 20 h (normal strains) or 48 h (SCVs) in brain heart infusion (BHI) broth in order to allow SCVs to reach maximal growth as previously described (Mitchell et al., 2012). Then OD595 nm was read on a microplate reader. […] In this example the range of compound concentrations tested was 0.03 to 64 μg/ml using doubling increments. Strain Staphylococcus aureus NewbouldΔhemB (hemB) was also used in the experiments and is a laboratory-derived stable SCV created by the insertion of the macrolide resistance gene ermA in the hemB gene of this strain to create the SCV phenotype (defective electron transport chain and respiratory deficiency) through inactivation of hemin biosynthesis (Brouillette et al., 2004).
The various antibacterial activities of the test compounds against Staphylococcus aureus ATCC 29213, alone or in combination with gentamicin, and alone against the SCV strain hemB are reported in Table 1.

[2] = test system: S. aureus SCV strain NewbouldΔhemB; assay: MIC by microdilution against SCV strain; assay type: cell-based, Staphylococcus aureus; conditions: for Activity of the compounds against the SCV strain (class) / MIC vs SCV: compound tested alone, strain NewbouldΔhemB
Protocol: as §1, with “2004). […]” for “2004).”

[3] = test system: MRSA USA100; assay: MIC by microdilution, alone or in combination, MRSA USA100; assay type: cell-based, Staphylococcus aureus; conditions: agent used alone
Protocol: as §1
(§2) In the present Example the range of compound concentrations tested, using doubling increments, was 0.03 to 64 μg/ml for Compound 14 and up to 1024 μg/ml for gentamicin (GEN), kanamycin (KAN) and cefalexin (CEF) when these compounds were used alone. Compound 14 (Cpd 14) was used at a fixed concentration of 4 μg/ml when added to other antibiotics. The combination of CEF and KAN was used in a 3:2 ratio and doubling increments were used to test the antibacterial activity against MRSA in the absence or presence of Compound 14.

[4] = test system: MRSA USA300; assay: MIC by microdilution, alone or in combination, MRSA USA300; assay type: cell-based, Staphylococcus aureus; conditions: agent used alone
Protocol: as §1, §2

[5] = test system: MRSA COL; assay: MIC by microdilution, alone or in combination, MRSA COL; assay type: cell-based, Staphylococcus aureus; conditions: agent used alone
Protocol: as §1, §2

[6] = test system: methicillin-resistant Staphylococcus aureus (MRSA) strains; assay: MIC against MRSA strains; assay type: cell-based; conditions: Staphylococcus aureus, MRSA, used alone; tested MRSA strains (kanamycin: two of the strains)
Protocol: as §1, §2

[7] = test system: S. aureus hemB (SaR1); assay: MIC against tomatidine-resistant SCV mutant SaR1; assay type: cell-based, Staphylococcus aureus; conditions: tomatidine-resistant mutant SaR1
Protocol: (§3) At each passage, using a microdilution method in 96-well microplates, S. aureus hemB was inoculated at ˜10^5-10^6 CFU/ml and incubated at 35° C. for 48 h. The range of tomatidine concentrations tested was 0.03 to 64 μg/ml using doubling increments. The concentration of gentamicin was fixed at 4 μg/mL when it was used in combination with tomatidine. At each passage, the minimal inhibitory concentrations (MICs) (i.e. lowest concentration of an antimicrobial that inhibits the visible growth of bacteria), of tomatidine was determined. The bacteria used as inoculum for the next passage were from the well preceeding the well showing the MIC (i.e. the well containing half the MIC). At each passage, the population of bacteria serving as the inoculum for the next passage was spread on BHI agar plates and three isolated colonies were collected and frozen until used for whole-genome sequencing.

[8] = test system: S. aureus hemB (SaR2); assay: MIC against tomatidine-resistant SCV mutant SaR2; assay type: cell-based, Staphylococcus aureus; conditions: tomatidine-resistant mutant SaR2
Protocol: as §3

[9] = test system: Listeria monocytogenes (strain ATCC 13932); assay: Time-kill experiments, Listeria monocytogenes; assay type: cell-based
Protocol: Time-kill experiments were performed in order to determine whether the effect of test compounds or the combination with an aminoglycoside on Listeria monocytogenes (strain ATCC 13932) is bacteriostatic (prevents growth) or bactericidal (kills cells).
At several time points during growth at 35° C. (225 RPM), bacteria were sampled, serially diluted and plated on Brain Hearth Infusion agar (BHIA) for colony-forming unit (CFU) determinations (i.e., viable bacterial counts). Plates were incubated for 24 h at 35° C. It represents the results of three independent experiments.

[10] = MIC gentamicin alone / MIC gentamicin with compound at 8 μg/mL
[11] = compound tested alone, read-out: MIC vs ATCC29213
[12] = Staphylococcus aureus, read-out: MIC vs SCV
[13] = read-out: MIC of aminoglycoside against S. aureus ATCC 29213, aminoglycoside alone
[14] = Staphylococcus aureus, read-out: MIC
[15] = S. aureus hemB (SCV strain NewbouldΔhemB)

CCCCNC(C)[C@H]1CC[C@H]2[C@@H]3CC[C@H]4C[C@@H](O)CC[C@]4(C)[C@H]3CC[C@]12C.Cl (mixture of isomers) [Compound 48, 3β-Hydroxy-20-butylamino-5α-pregnane hydrochloride]
potentiaton fold with gentamicin [1, 10]: 8 x | potentiation / synergy with aminoglycoside (gentamicin) in words [1]: strong or moderate synergy | MIC [1, 11]: 64 µg/mL | potentiation activity with gentamicin in words ([1]; compound used at 8 μg/mL): High | Combination MIC vs ATCC29213 (MIC of gentamicin in combination with the compound) ([1]; compound used at 8 μg/mL): 0.06 | MIC [2, 12]: 4 to 8 µg/mL | Activity of the compounds against the SCV strain (class) [2]: Moderate (MIC = 0.5-4 μg/mL: moderate activity)

CC(C)CCNC(C)[C@H]1CC[C@H]2[C@@H]3CC[C@H]4C[C@@H](O)CC[C@]4(C)[C@H]3CC[C@]12C.Cl (mixture of isomers) [Compound 50, 3β-Hydroxy-20-isopentylamino-5α-pregnane hydrochloride]
potentiaton fold with gentamicin [1, 10]: 4 x | potentiation / synergy with aminoglycoside (gentamicin) in words [1]: strong or moderate synergy | MIC [1, 11]: > 64 µg/mL | potentiation activity with gentamicin in words ([1]; compound used at 8 μg/mL): Moderate | Combination MIC vs ATCC29213 (MIC of gentamicin in combination with the compound) ([1]; compound used at 8 μg/mL): 0.12 | MIC [2, 12]: > 8 µg/mL | Activity of the compounds against the SCV strain (class) [2]: Low (MIC = ≥8 μg/mL: low activity)

NCC[C@H](O)C(=O)N[C@@H]1C[C@H](N)[C@@H](O[C@H]2O[C@H](CN)[C@@H](O)[C@H](O)[C@H]2O)[C@H](O)[C@H]1O[C@H]1O[C@H](CO)[C@@H](O)[C@H](N)[C@H]1O [Amikacin, reference compound]
MIC of aminoglycoside against S. aureus ATCC 29213 in combination with Compound 14 [1]: 0.25 µg/mL | Potentiation fold with Compound 14 [1]: 16 fold | MIC [1, 13]: 4 µg/mL

CC1=C(C(=O)O)N2C(=O)[C@@H](NC(=O)[C@H](N)c3ccccc3)[C@H]2SC1 [Cefalexin, cefalexin]
MIC [3, 14]: 256 µg/mL | MIC [4, 14]: 256 µg/mL | MIC [5, 14]: 256 µg/mL | MIC [6]: 256 µg/mL

C[C@H]1CC[C@]2(NC1)O[C@H]1C[C@H]3[C@@H]4CC[C@H]5CC(NCCCCN)CC[C@]5(C)[C@H]4CC[C@]3(C)[C@H]1[C@@H]2C.Cl.Cl.Cl (stereo partly shown) [Compound 16, 3-(N-aminobutyl)-aminotomatidine hydrochloride]
potentiaton fold with gentamicin ([1]; MIC gentamicin alone / MIC gentamicin with compound at 4 μg/mL): 4-8 x | potentiation / synergy with aminoglycoside (gentamicin) in words [1]: retain the ability to potentiate | activity vs ATCC29213 in words ([1]; compound tested alone): Active | MIC vs ATCC29213 ([1]; compound tested alone): 16 µg/mL | potentiation activity with gentamicin in words ([1]; compound used at 4 μg/mL): Moderate-high | Combination MIC vs ATCC29213 (MIC of gentamicin in combination with the compound) ([1]; compound used at 4 μg/mL): 0.06-0.12 | Activity of the compounds against the SCV strain (class) [2]: Moderate (MIC = 0.5-4 μg/mL: moderate activity) | MIC vs SCV [2]: 0.5 µg/mL

C[C@H]1CC[C@]2(NC1)O[C@H]1C[C@H]3[C@@H]4CC[C@H]5CC(NCCCCCCN)CC[C@]5(C)[C@H]4CC[C@]3(C)[C@H]1[C@@H]2C.Cl.Cl.Cl (stereo partly shown) [Compound 18, 3-(N-aminohexyl)-aminotomatidine hydrochloride]
potentiaton fold with gentamicin [1, 10]: 2-4 x | potentiation activity with gentamicin in words ([1]; compound used at 8 μg/mL): Moderate | Combination MIC vs ATCC29213 (MIC of gentamicin in combination with the compound) ([1]; compound used at 8 μg/mL): 0.12-0.25 | Activity of the compounds against the SCV strain (class) [2]: Moderate (MIC = 0.5-4 μg/mL: moderate activity) | MIC vs SCV [2]: 1 µg/mL

NC[C@H]1O[C@H](O[C@H]2[C@H](O)[C@@H](O[C@H]3O[C@H](CO)[C@@H](O)[C@H](N)[C@H]3O)[C@H](N)C[C@@H]2N)[C@H](O)[C@@H](O)[C@@H]1O [Kanamycin, kanamycin, reference compound]
MIC of aminoglycoside against S. aureus ATCC 29213 in combination with Compound 14 [1]: 0.25 µg/mL | Potentiation fold with Compound 14 [1]: 16 fold | MIC [1, 13]: 4 µg/mL | MIC [3, 14]: 256 µg/mL | MIC [4, 14]: > 1020 µg/mL | MIC [5, 14]: 4 µg/mL

[H]/N=C(/N)N[C@H]1[C@H](O)[C@@H](O)[C@H](O[C@@H]2O[C@@H](C)[C@](O)(C=O)[C@H]2O[C@@H]2O[C@@H](CO)[C@H](O)[C@@H](O)[C@@H]2NC)[C@@H](N/C(N)=N\[H])[C@@H]1O [Streptomycin, reference compound]
MIC of aminoglycoside against S. aureus ATCC 29213 in combination with Compound 14 [1]: 1 µg/mL | Potentiation fold with Compound 14 [1]: 4-8 fold | MIC [1, 13]: 4 to 8 µg/mL

NC[C@H]1O[C@H](O[C@H]2[C@H](O)[C@@H](O[C@H]3O[C@H](CO)[C@@H](O)[C@H](N)[C@H]3O)[C@H](N)C[C@@H]2N)[C@H](N)C[C@@H]1O [Tobramycin, reference compound]
MIC of aminoglycoside against S. aureus ATCC 29213 in combination with Compound 14 [1]: 0.125 µg/mL | Potentiation fold with Compound 14 [1]: 8 fold | MIC [1, 13]: 1 µg/mL

Tomatidine hydrochloride [Compound 3, reference compound]
MIC vs ATCC29213 ([1]; compound tested alone): >64 µg/mL | MIC vs ATCC29213 ([1]; compound tested alone, listed as tomatidine hydrochloride salt): > 64 µg/mL | potentiation activity with gentamicin in words ([1]; compound used at 8 μg/mL): High | Combination MIC vs ATCC29213 (MIC of gentamicin in combination with the compound) ([1]; compound used at 8 μg/mL): 0.06 | MIC [2, 15]: 0.0625 µg/mL | Activity of the compounds against the SCV strain (class) [2]: High (MIC = 0.06-0.25 μg/mL: high activity) | MIC vs SCV [2]: 0.06 µg/mL | MIC [7]: >32 µg/mL | MIC [8]: >32 µg/mL | effect in time-kill in combination with gentamicin ([9]; 8 μg/ml with 2 μg/ml gentamicin): not seen | effect on growth in time-kill (CFU) ([9]; used alone at 8 μg/ml): does not affect the growth

gentamicin [reference compound]
MIC of aminoglycoside against S. aureus ATCC 29213, aminoglycoside alone ([1]; aminoglycoside alone): 0.5 µg/mL | MIC [2, 15]: 4 to 8 µg/mL | MIC [3]: 0.5 µg/mL | MIC [4]: 0.5 µg/mL | MIC [5]: 0.25 µg/mL | MIC [7]: 4 to 8 µg/mL | MIC [8]: 16 µg/mL
